Laboratory results as given in patent publication US9216187B2, “Soyasapogenol composition” (J-OIL MILLS, INC., priority 2011, dated 2015).

Assay: Evaluation of absorption of soyasapogenol composition, blood soyasapogenol B at 1 to 12 hours and AUC (Examples 3 to 4)
Format: in vivo
Settings: rat, plasma, oral, male SD rats, single dose with feeding needle, 100 μmol/kg body weight in terms of saponin aglycone
Experimental: To each of the obtained plasma, 0.2 M Na acetate buffer solution (pH 5.5) in an amount same as that of the plasma was added. Subsequently, 3000 units of β-glucuronidase (product name: H-2, product of Sigma-Aldrich, Co. LLC) were added, and an enzyme reaction was allowed at 37° C. for 12 hours. After termination of the reaction, 3 ml of a mixture liquid of methanol:acetonitrile (1:1) and internal standard formononetin (product of Sigma-Aldrich, Co. LLC) were added to the enzyme treatment solution, followed by centrifugation, and then a supernatant was collected. An operation of adding 3 ml of the mixture liquid of methanol:acetonitrile (1:1) to a residue and performing centrifugation was repeated twice, and a supernatant was collected after each of the operations. The collected supernatants were mixed and subjected to drying under reduced pressure using a rotary evaporator.
8-week-old male SD rats (Charles River Laboratories Japan, Inc.) were divided into groups so that one group consists of 4 rats, and each of the compositions of Examples 3 and 4 and Comparative Example 1 was suspended into a 0.5% CMC solution, followed by a single dose administration of the suspension in an equivalent amount (100 μmol/kg body weight) in terms of saponin aglycone to each of the rats with a feeding needle. Blood sampling was conducted at 1, 3, 8 and 12 hours after the administration, and plasma was obtained from each of the blood samples. Each of the obtained plasma was subjected to the pre-treatment and the HPLC-MS analysis in the same manner as in Example 1 to examine the soyasapogenol B concentration in the blood. The blood soyasapogenol B concentration at 1 to 12 hours after the administration and AUCs (areas under curve of the blood concentration) are shown in Table 3.

AUC (100 umol/kg, 1 to 12 hours, read-out: AUC (area under curve of the blood soyasapogenol B concentration)): 2910 ng·h/mL
concentration at 1 h (1 hour, read-out: Blood Soyasapogenol B Concentration 1 hour after): 317 ng/mL
concentration at 3 h (3 hours, read-out: Blood Soyasapogenol B Concentration 3 hours after): 280 ng/mL
concentration at 8 h (8 hours, read-out: Blood Soyasapogenol B Concentration 8 hours after): 293 ng/mL
concentration at 12 h (12 hours, read-out: Blood Soyasapogenol B Concentration 12 hours after): 68.1 ng/mL
Compound: CC1(C)C[C@@H](O)[C@]2(C)CC[C@]3(C)C(=CC[C@@H]4[C@@]5(C)CC[C@H](O)[C@](C)(CO)[C@@H]5CC[C@]43C)[C@@H]2C1 [Comp. Ex. 1, soyasapogenol B]
